Where two headings read alike, the source gives them in different places.
Tests used:
[1] = target: T1, Ba/F3-L858R/T790M/C797S (Homo sapiens, UniProt P00533, T790M/C797S/L858R, cells depend on it); experiment: Ba/F3-L858R/T790M/C797S cells proliferation assay; assay type: cell-based; settings: cell proliferation, 72 h, CellTiter Glo, read-out: BaF3 L858R/T790M/C797S IC50
T1 construct: BaF3 L858R/T790M/C797S IC50; other: cell proliferation, 72 h, CellTiter Glo; class symbols; numeric values
Protocol: (§1) a) The medium was preheated in a 37 water bath in advance.
(§2) b) Remove the cryogenic vials from the liquid nitrogen tank, quickly put it into a 37° C. water bath, and completely melt it in 1 min.
(§3) c) Transfer the cell suspension to a 15 mL centrifuge tube containing 8 mL medium, centrifuge 1000 rpm, 5 min,
(§4) d) Discard the supernatant, resuspend the cells in 1 mL medium, and transfer to a 75 cm^2 flask containing 15 mL medium, culture the cells in an incubator at 37° C., 5% CO2.
(§5) a) The medium was preheated in a 37° C.; water bath in advance.
(§6) b) Collect cell to a 15 mL centrifuged tube, centrifuge at 1000 rpm for 5 min. Discard the supernatant, count, and make the cell density at 1×10^4 cells/mL, then place it in a 37° C., 5% CO2 incubator.
(§7) b) The above compound solution was diluted 1:20 times with culture medium to prepare a 10 fold working solution;
(§8) a) Take cells in log phase growth, centrifuge at 1000 rpm for 5 min, then resuspend the cells with culture medium, then count cells;
(§9) b) Cells were seeded to 96-well cell culture plate with density at 2000 cells/well;
(§10) The blank control well was a culture medium (0.5% DMSO);
(§11) b) The cells were incubated for an additional 72 h in the incubator.
(§12) a) Remove the 96-well cell culture plate and add 50 μl of CTG reagent (CellTiter Glo kit, promega, Cat #G7573).
(§13) b) Plate was shaked for 2 min and then let it cool for 10 min at room temperature.
(§14) c) The Luminescence signal value was read using a PerkinElmer reader.
(§15) Experimental Data Analysis
(§16) Data were analyzed using GraphPad Prism 6.0 software to obtain a fitted curve of compound activity.
(§17) Y=Bottom+(Top−Bottom)/(1+10^((Log IC50−X)*Hill Slope));
(§18) The cells proliferation assay results are expressed with IC50, shown as Table 2.

[2] = target: T2, Ba/F3-L858R/T790M/C797S (Homo sapiens, UniProt P00533, T790M/C797S, cells depend on it, form not given); experiment: Ba/F3-L858R/T790M/C797S cells proliferation assay; assay type: cell-based; settings: summary in words of Table 2; covers both Ba/F3 triple mutant lines
T2 construct: covers both
Protocol: as §1, §2, §3, §4, §5, §6, §7, §8, §9, §10, §11, §12, §13, §14, §15, §16, §17, §18

[3] = test system: HCC827(Δ19del); experiment: HCC827 cells proliferation assay; assay type: cell-based; settings: Homo sapiens, HCC827, cell proliferation, 72 h, CellTiter Glo, read-out: HCC827 IC50
Summary of the method: (§19)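 HCC827 (2500 cells/well) and H1975 (2000 cells/well) cells seeded in 96-well plates and exposed to compounds for 72 h at 37° C, 5% CO2; 0.5% DMSO medium as blank. Viability by CellTiter-Glo luminescence; IC50 from four-parameter logistic fit.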

[4] = target: Ba/F3-Δ19del/T790M/C797S (Homo sapiens, UniProt P00533, T790M/C797S, cells depend on it, form not given); experiment: Ba/F3-Δ19del/T790M/C797S cells proliferation assay; assay type: cell-based; settings: cell proliferation, 72 h, CellTiter Glo, read-out: BaF3 Δ 19del/T790M/C797S IC50
Protocol: as §1, §2, §3, §4, §5, §6, §7, §8, §9, §10, §11, §12, §13, §14, §15, §16, §17, §18

[5] = test system: H1975(L858R/T790M); experiment: H1975 cells proliferation assay; assay type: cell-based; settings: for IC50: Homo sapiens, NCI-H1975, cell proliferation, 72 h, CellTiter Glo, read-out: H1975 IC50; for inhibition of double mutant (L858R/T790M): summary in words of Table 2
Summary of the method: as §19

[6] = target: EGFR Δ19del/T790M/C797S (Homo sapiens, UniProt P00533, T790M/C797S, form not given); experiment: Kinase assay (mobility shift) for EGFR Δ19del/T790M/C797S; assay type: biochemical; settings: read-out: EGFR Δ 19del/T790M/C797S IC50
[7] = target: EGFR L858R (Homo sapiens, UniProt P00533, L858R); experiment: Kinase assay (mobility shift) for EGFR L858R; assay type: biochemical
[8] = target: EGFR T790M/L858R (Homo sapiens, UniProt P00533, L858R/T790M); experiment: Kinase assay (mobility shift) for EGFR T790M/L858R; assay type: biochemical
Sequence of EGFR T790M/L858R (P00533 25-1210 T790M/L858R): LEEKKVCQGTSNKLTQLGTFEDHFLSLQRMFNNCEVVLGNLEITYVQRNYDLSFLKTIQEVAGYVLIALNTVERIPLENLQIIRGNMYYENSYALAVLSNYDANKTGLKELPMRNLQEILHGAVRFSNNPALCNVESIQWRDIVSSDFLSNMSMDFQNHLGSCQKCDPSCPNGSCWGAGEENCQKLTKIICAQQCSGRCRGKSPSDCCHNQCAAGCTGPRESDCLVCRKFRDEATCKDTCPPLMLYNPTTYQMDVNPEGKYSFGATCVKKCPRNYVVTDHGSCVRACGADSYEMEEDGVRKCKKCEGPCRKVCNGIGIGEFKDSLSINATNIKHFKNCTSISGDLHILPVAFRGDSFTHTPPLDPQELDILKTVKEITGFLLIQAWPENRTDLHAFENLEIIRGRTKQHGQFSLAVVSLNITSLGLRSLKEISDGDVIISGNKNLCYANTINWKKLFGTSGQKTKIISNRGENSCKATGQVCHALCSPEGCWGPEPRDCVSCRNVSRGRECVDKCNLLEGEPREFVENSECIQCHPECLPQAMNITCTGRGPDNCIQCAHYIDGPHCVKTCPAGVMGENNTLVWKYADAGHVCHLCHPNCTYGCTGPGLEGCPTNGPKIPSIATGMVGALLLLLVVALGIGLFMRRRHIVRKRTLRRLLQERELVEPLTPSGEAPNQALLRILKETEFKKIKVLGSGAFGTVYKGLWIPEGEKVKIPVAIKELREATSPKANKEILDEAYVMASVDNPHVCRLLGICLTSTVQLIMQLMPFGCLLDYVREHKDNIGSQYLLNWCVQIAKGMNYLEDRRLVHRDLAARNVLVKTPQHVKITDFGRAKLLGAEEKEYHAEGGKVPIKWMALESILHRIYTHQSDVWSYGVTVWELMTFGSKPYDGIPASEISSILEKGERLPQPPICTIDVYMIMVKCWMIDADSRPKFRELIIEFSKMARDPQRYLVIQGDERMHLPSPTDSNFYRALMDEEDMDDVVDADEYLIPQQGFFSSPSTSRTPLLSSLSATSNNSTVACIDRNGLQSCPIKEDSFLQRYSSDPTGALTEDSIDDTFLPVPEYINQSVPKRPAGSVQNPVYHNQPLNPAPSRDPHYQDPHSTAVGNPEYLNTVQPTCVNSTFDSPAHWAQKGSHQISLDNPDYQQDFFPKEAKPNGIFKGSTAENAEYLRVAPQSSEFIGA

T2 sequence (P00533 whole entry T790M/C797S/L858R, form open): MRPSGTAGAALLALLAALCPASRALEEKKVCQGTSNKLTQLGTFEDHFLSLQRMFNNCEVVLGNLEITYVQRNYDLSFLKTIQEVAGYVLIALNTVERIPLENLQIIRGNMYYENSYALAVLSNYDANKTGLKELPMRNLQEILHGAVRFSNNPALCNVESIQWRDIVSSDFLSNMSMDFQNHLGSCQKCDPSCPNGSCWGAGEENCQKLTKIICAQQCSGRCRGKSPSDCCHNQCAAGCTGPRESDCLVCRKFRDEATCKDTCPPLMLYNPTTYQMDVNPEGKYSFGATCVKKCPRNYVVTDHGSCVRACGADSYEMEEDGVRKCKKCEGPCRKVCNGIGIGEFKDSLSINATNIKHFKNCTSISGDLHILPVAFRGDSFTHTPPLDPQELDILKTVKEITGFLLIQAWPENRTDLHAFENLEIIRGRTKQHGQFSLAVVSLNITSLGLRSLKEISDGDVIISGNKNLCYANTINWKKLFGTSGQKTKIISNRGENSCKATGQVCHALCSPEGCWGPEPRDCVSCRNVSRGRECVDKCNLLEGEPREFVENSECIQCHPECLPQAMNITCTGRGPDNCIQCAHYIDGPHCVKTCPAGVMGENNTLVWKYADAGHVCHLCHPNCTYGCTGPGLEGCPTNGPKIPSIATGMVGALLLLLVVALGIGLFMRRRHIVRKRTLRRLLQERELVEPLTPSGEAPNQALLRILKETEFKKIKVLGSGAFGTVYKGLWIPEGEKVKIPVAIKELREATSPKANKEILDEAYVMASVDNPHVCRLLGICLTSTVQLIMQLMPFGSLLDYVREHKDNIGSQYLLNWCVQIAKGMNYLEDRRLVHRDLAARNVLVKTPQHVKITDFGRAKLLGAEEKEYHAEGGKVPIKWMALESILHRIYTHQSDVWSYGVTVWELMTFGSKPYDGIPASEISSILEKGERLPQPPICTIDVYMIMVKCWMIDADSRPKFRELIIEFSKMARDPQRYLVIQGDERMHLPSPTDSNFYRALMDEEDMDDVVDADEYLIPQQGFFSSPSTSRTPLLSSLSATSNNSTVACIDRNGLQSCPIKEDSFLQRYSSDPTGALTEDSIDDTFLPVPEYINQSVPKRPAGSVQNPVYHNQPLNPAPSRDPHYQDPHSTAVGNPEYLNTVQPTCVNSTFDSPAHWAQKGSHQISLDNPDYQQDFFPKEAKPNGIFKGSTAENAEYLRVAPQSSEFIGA
T1 sequence (P00533 whole entry T790M/C797S/L858R): as the sequence (P00533 whole entry T790M/C797S/L858R, form open) above
Sequence of EGFR Δ19del/T790M/C797S (P00533 with tags, fused parts or gaps DEL746-750/T790M/C797S, form open): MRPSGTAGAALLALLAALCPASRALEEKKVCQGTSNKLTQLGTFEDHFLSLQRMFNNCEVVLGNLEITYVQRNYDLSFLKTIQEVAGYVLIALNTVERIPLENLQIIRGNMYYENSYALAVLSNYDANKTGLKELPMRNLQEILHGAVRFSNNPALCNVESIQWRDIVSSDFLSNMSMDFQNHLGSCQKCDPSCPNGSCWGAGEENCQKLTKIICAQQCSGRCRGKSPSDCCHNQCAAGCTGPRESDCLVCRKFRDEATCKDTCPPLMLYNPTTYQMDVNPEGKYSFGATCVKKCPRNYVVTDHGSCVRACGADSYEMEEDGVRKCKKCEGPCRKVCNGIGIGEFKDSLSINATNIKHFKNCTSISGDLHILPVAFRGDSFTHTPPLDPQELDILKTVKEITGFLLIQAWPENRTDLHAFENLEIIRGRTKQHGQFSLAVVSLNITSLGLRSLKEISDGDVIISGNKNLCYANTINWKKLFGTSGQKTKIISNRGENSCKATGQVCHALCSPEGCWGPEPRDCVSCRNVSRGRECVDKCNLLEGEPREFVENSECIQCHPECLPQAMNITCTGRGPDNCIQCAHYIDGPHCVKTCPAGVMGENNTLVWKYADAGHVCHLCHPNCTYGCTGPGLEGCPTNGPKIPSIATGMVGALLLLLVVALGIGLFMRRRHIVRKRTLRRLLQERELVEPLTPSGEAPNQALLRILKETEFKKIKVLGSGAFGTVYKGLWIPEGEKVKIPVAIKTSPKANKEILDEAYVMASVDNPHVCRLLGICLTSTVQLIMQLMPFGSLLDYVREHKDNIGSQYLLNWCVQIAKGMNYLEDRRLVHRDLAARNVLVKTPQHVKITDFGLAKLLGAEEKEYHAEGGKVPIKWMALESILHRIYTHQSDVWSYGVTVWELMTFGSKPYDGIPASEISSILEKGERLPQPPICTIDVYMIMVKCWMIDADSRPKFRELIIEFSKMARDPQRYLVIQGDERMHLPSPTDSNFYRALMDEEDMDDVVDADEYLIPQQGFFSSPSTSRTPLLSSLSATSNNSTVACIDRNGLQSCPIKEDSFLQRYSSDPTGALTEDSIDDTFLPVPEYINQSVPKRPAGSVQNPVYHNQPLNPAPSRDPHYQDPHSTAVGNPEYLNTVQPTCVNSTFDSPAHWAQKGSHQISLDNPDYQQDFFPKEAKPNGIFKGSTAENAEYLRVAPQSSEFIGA

## CCN1CC2(C1)CN(c1ccc(Nc3ncc(Cl)c(Nc4ccccc4P(C)(C)=O)n3)cc1C)C2 [Comparative compound A, (2-((5-chloro-2-((4-(6-ethyl-2,6-diazaspiro[3.3]heptan-2-yl)-3-methylphenyl)amino)pyrimidin-4-yl)amino)phenyl)dimethylphosphine oxide, reference compound]
[1]; class symbols
  GI50: < 10 nM
[2]
  inhibition of triple mutant (L858R/T790M/C797S or Δ19del/T790M/C797S): higher inhibition
[3]; numeric values
  IC50: 89.5 nM
[4]; class symbols
  GI50: < 10 nM
[5]; numeric values
  IC50: 61.7 nM
[5]
  inhibition of double mutant (L858R/T790M): relatively low inhibition

## COc1cc(N2CCC(N3CCN(C)CC3)CC2)c(C)cc1Nc1ncc(Br)c(Nc2ccc3nccnc3c2P(C)(C)=O)n1 [Comparative compound C, (6-((5-bromo-2-((2-methoxy-5-methyl-4-(4-(4-methylpiperazin-1-yl)piperidin-1-yl)phenyl)amino)pyrimidin-4-yl)amino)quinoxalin-5-yl)dimethylphosphine oxide, reference compound]
[1]; numeric values
  GI50: 16.8 nM
[2]
  inhibition of triple mutant (L858R/T790M/C797S or Δ19del/T790M/C797S): higher inhibition
[4]; numeric values
  GI50: 9.6 nM
[5]; numeric values
  IC50: 71.4 nM
[5]
  inhibition of double mutant (L858R/T790M): relatively low inhibition

## CCc1cc(Nc2ncc(Br)c(Nc3ccc4nccnc4c3P(C)(C)=O)n2)c(OC)cc1N1CCC(N2CCN(C)CC2)CC1 [Comparative compound D, (6-((5-bromo-2-((5-ethyl-2-methoxy-4-(4-(4-methylpiperazin-1-yl)piperidin-1-yl)phenyl)amino)pyrimidin-4-yl)amino)quinoxalin-5-yl)dimethylphosphine oxide, reference compound]
[1]; numeric values
  GI50: 12.9 nM
[2]
  inhibition of triple mutant (L858R/T790M/C797S or Δ19del/T790M/C797S): higher inhibition
[4]; numeric values
  GI50: 5.7 nM
[5]; numeric values
  IC50: 83.6 nM
[5]
  inhibition of double mutant (L858R/T790M): relatively low inhibition

## C=CC(=O)Nc1cc(Nc2ncc(Cl)c(Nc3ccccc3P(C)(C)=O)n2)ccc1N1CCC2(CCC(N(C)C)CC2)CC1 [Compound 1, N-(5-((5-chloro-4-((2-(dimethylphosphoryl)phenyl)amino)pyrimidin-2-yl)amino)-2-(9-(dimethylamino)-3-azaspiro[5.5]undecan-3-yl)phenyl)acrylamide]
[6]
  IC50: < 10 nM
[1]; class symbols
  GI50: < 10 nM
[3]; class symbols
  IC50: < 10 nM
[7]
  IC50: 10 to 100 nM
[4]; class symbols
  GI50: < 10 nM
[5]; class symbols
  IC50: < 10 nM
[8]
  IC50: < 10 nM

## C=CC(=O)Nc1cc(Nc2ncc(Cl)c(Nc3ccccc3P(C)(C)=O)n2)ccc1N(C)CCN(C)C [Compound 15, N-(5-((5-chloro-4-((2-(dimethylphosphoryl)phenyl)amino)pyrimidin-2-yl)amino)-2-((2-(dimethylamino)ethyl)(methyl)amino)phenyl)acrylamide]
[6]
  IC50: < 10 nM
[1]; class symbols
  GI50: 10 to 50 nM
[3]; class symbols
  IC50: < 10 nM
[7]
  IC50: < 10 nM
[4]; class symbols
  GI50: 10 to 50 nM
[5]; class symbols
  IC50: < 10 nM
[8]
  IC50: < 10 nM

## C=CC(=O)Nc1cc(Nc2ncc(Cl)c(Nc3ccccc3P(C)(C)=O)n2)ccc1N1CCC(N2CCN(C)CC2)CC1 [Compound 16, N-(5-((5-chloro-4-((2-(dimethylphosphoryl)phenyl)amino)pyrimidin-2-yl)amino)-2-(4-(4-methylpiperazin-1-yl)piperidin-1-yl)phenyl)acrylamide]
[6]
  IC50: < 10 nM
[1]; class symbols
  GI50: 10 to 50 nM
[3]; class symbols
  IC50: 10 to 50 nM
[7]
  IC50: < 10 nM
[4]; class symbols
  GI50: 10 to 50 nM
[5]; class symbols
  IC50: < 10 nM
[8]
  IC50: < 10 nM

## C=CC(=O)Nc1cc(Nc2ncc(Cl)c(Nc3ccccc3P(C)(C)=O)n2)ccc1N1CCN2CCC[C@H]2C1 [Compound 17, (S)—N-(5-((5-chloro-4-((2-(dimethylphosphoryl)phenyl)amino)pyrimidin-2-yl)amino)-2-(hexahydropyrrolo[1,2-a]pyrazin-2(1H)-yl)phenyl)acrylamide]
[6]
  IC50: < 10 nM
[1]; class symbols
  GI50: 10 to 50 nM
[3]; class symbols
  IC50: 10 to 50 nM
[7]
  IC50: < 10 nM
[4]; class symbols
  GI50: 10 to 50 nM
[5]; class symbols
  IC50: 10 to 50 nM
[8]
  IC50: < 10 nM

## C=CC(=O)Nc1cc(Nc2ncc(Cl)c(Nc3ccccc3P(C)(C)=O)n2)ccc1N(C)CCN1CCCC1 [Compound 18, N-(5-((5-chloro-4-((2-(dimethylphosphoryl)phenyl)amino)pyrimidin-2-yl)amino)-2-(methyl(2-(pyrrolidin-1-yl)ethyl)amino)phenyl)acrylamide]
[6]
  IC50: < 10 nM
[1]; class symbols
  GI50: 10 to 50 nM
[3]; class symbols
  IC50: < 10 nM
[7]
  IC50: < 10 nM
[4]; class symbols
  GI50: 10 to 50 nM
[5]; class symbols
  IC50: < 10 nM
[8]
  IC50: < 10 nM

## C=CC(=O)Nc1cc(Nc2ncc(Br)c(Nc3ccc4nccnc4c3P(C)(C)=O)n2)ccc1N(C)CCN(C)C [Compound 34, N-(5-(5-bromo-4-(5-(dimethylphosphoryl)quinoxalin-6-ylamino)pyrimidin-2-ylamino)-2-((2-(dimethylamino)ethyl)(methyl)amino)phenyl)acrylamide]
[6]
  IC50: < 10 nM
[1]; class symbols
  GI50: < 10 nM
[3]; class symbols
  IC50: < 10 nM
[4]; class symbols
  GI50: < 10 nM
[5]; class symbols
  IC50: < 10 nM

## C=CC(=O)Nc1cc(Nc2ncc(Br)c(Nc3ccc4nccnc4c3P(C)(C)=O)n2)ccc1N1CCC2(CC1)CC(N(C)C)C2 [Compound 35, N-(5-(5-bromo-4-(5-(dimethylphosphoryl)quinoxalin-6-ylamino)pyrimidin-2-ylamino)-2-(2-(dimethylamino)-7-azaspiro[3.5]nonan-7-yl)phenyl)acrylamide]
[6]
  IC50: < 10 nM
[1]; class symbols
  GI50: < 10 nM
[3]; class symbols
  IC50: < 10 nM
[4]; class symbols
  GI50: < 10 nM
[5]; class symbols
  IC50: < 10 nM

## C=CC(=O)Nc1cc(Nc2ncc(Cl)c(Nc3ccccc3P(C)(C)=O)n2)ccc1N1CCC2(CC1)CC(N(C)C)C2 [Compound 36, N-(5-((5-chloro-4-((2-(dimethylphosphoryl)phenyl)amino)pyrimidin-2-yl)amino)-2-(2-(dimethylamino)-7-azaspiro[3.5]nonan-7-yl)phenyl)acrylamide]
[6]
  IC50: < 10 nM
[1]; class symbols
  GI50: < 10 nM
[3]; class symbols
  IC50: < 10 nM
[7]
  IC50: < 10 nM
[4]; class symbols
  GI50: < 10 nM
[5]; class symbols
  IC50: < 10 nM
[8]
  IC50: < 10 nM

Source: US20220227796A1, “EGFR INHIBITORS, COMPOSITIONS AND METHODS THERE OF” (Betta Pharmaceuticals Co., Ltd., priority 2019, published 2022)
